Measurements reported in patent EP1295874A2, “Retroviral protease inhibiting compounds” (Abbott Laboratories, priority 1995, dated 1997).
Where two headings read alike, the source gives them in different places.

What was measured:
HIV protease = biological target: T1, HIV protease (Human immunodeficiency virus type 1 group M subtype B, UniProt P04585); experiment: Fluorogenic Assay for Screening Inhibitors of HIV Protease; assay type: biochemical; conditions: Inhibitor Concentration 0.5 nanomolar; read-out: Percent Inhibition
T1 construct: HIV protease consists of two identical subunits, each of which has 99 amino acid residues
Method: The inhibitory potency of the compound of the invention can be determined by the following method.
The compound of the invention is dissolved in DMSO and a small aliquot further diluted with DMSO to 100 times the final concentration desired for testing. The reaction is carried out in a 6 X 50 mm tube in a total volume of 300 microliters. The final concentrations of the components in the reaction buffer are: 125 mM sodium acetate, 1 M sodium chloride, 5 mM dithiothreitol, 0.5 mg/ml bovine serum albumin, 1.3 µM fluorogenic substrate, 2% (v/v) dimethylsulfoxide, pH 4.5. After addition of inhibitor, the reaction mixture is placed in the fluorometer cell holder and incubated at 30°C for several minutes. The reaction is initiated by the addition of a small aliquot of cold HIV protease. The fluorescence intensity (excitation 340 nm, emmision 490 nM) is recorded as a function of time. The reaction rate is determined for the first six to eight minutes. The observed rate is directly proportional to the moles of substrate cleaved per unit time. The percent inhibition is 100 X (1 - (rate in presence of inhibitor)/(rate in absence of inhibitor)).
Fluorogenic substrate: Dabcyl-Gaba-Ser-Gln-Asn-Tyr-Pro-lle-Val-Gln-EDANS wherein DABCYL = 4-(4-dimethylamino-phenyl)azobenzoic acid, Gaba = γ-aminobutyric acid, and EDANS = 5-((2-aminoethyl)amino)-naphthalene-1-sulfonic acid.

[1] = 50% lethal concentration in uninfected MT4 cells (MTT); assay type: cell-based; conditions: human, read-out: LC50
Text: (§1) The anti-HIV activity of the compound of the invention can be determined in MT4 cells according to the following procedure. MT4 cells were infected with cell-free supernatant of HIVIIIB (previously frozen with known 50% tissue culture infectious dose (TCID50) at 0.003 multiplicity of infection (MOI) for one hour. After one hour infection, cells were washed twice to remove residual viruses, resuspended in culture media and seeded into 96-well tissue culture plates at 1x10^4 cells per well with various half-log dilutions of compounds. Uninfected cells are included as toxicity and cell controls. RPMI 1640 media (Gibco ) with 10% fetal bovine serum were used as culture media. Various concentrations of human serum (Sigma) 50%, 25% and 12.5% were added to culture media resulting in final concentration of 60%, 35% and 22.5% total serum. All assay plates were incubated in 37 deg. cent. incubator for 5 days. MTT (sigma, 5 mg/ml stock in PBS) was added to all wells at 25 ul per well, incubate for 4 hours. 20%SDS with 0.02 N HCl in water was added at 50 ul per well to lyse cellls. Plates incubated overnight for complete lyses were read on a microtitre plate reader at 570/650 nm wavelengths to determine cell optical density (O.D.). Raw data were analysed for percent inhibition by the following formula: (O.D. test well - O.D. virus control)/(O.D. cell control -O.D. virus control)x100 [formula] The 50% effective concentration (EC50) was calculated by the median effect equation (Chou, 1975,Proc. Int. Cong. Pharmacol. 6th p. 619) to determine the efficacy of compound. The 50% lethal concentration (LC50) was calculated using uninfected MT4 cells.
(§2) Under these conditions, the following data were obtained (n = 4 duplicate determinations: Table 2

[2] = test system: HIV Selected In Vitro by the Compound of Example 2B; experiment: microbe, parasite or virus in culture; assay type: cell-based
HIVIIIB = experiment: Antiviral activity (anti-HIV activity) in MT4 cells, MTT readout; assay type: cell-based; conditions: Human immunodeficiency virus 1, MT4, 120 h, read-out: IC50 (µM, 0% plasma)
Text: as §1, §2

[3] = test system: Ritonavir-Resistant HIV from Patients; experiment: microbe, parasite or virus in culture; assay type: cell-based
Passaged HIV-1 = experiment: Phenotypic susceptibility of in vitro passaged HIV-1 to the compound of Example 2B (MTT colorimetric assay); assay type: cell-based
[4] = test system: Ritonavir-Resistant Mutant HIV Clones; experiment: microbe, parasite or virus in culture; assay type: cell-based

Cc1cccc(C)c1OCC(=O)N[C@@H](Cc1ccccc1)[C@@H](O)C[C@H](Cc1ccccc1)NC(=O)[C@H](C(C)C)N1CCCNC1=O [Example 2B, (2S, 3S, 5S)-2-(2,6-Dimethylphenoxyacetyl) amino-3-hydroxy-5-[2S-(1-tetrahydro-pyrimid-2-onyl)-3-methylbutanoyl] amino-1,6-diphenylhexane]
inhibition at 0.0005 µM (HIV protease): 93.2%
CC50 at 120 h [1]: 17800 nM
EC50 ([2]; Human immunodeficiency virus 1, NL43, Virus NL4-3): 28 nM
EC50 ([2]; Human immunodeficiency virus 1, Virus P7): 116 nM
EC50 ([2]; Human immunodeficiency virus 1, Virus P11): 349 nM
EC50 ([2]; Human immunodeficiency virus 1, Virus P14): 1280 nM
EC50 ([2]; Human immunodeficiency virus 1, Virus P17): 9480 nM
IC50 (HIVIIIB): 0.016 µM
EC50 ([3]; Human immunodeficiency virus 1, 24 h, Patient No. 313, Day 1, baseline): 4 nM
EC50 ([3]; Human immunodeficiency virus 1, 24 h, Patient No. 410, Day 1, baseline): 6 nM
EC50 ([3]; Human immunodeficiency virus 1, 504 h, Patient No. 104, Day 21, V82A): 9 nM
EC50 ([3]; Human immunodeficiency virus 1, 672 h, Patient No. 104, Day 28, V82T): 13 nM
EC50 ([3]; Human immunodeficiency virus 1, Patient No. 104, Day -1, baseline): 8 nM
EC50 ([3]; Human immunodeficiency virus 1, Patient No. 129, Day 84, M36I, I54V, A71V, V82T): 33 nM
EC50 ([3]; Human immunodeficiency virus 1, Patient No. 129, Day 140, K20K/R, M36M/I, I54V, A71A/V, V82T): 29 nM
EC50 ([3]; Human immunodeficiency virus 1, Patient No. 129, Day -1, baseline): 5 nM
EC50 ([3]; Human immunodeficiency virus 1, Patient No. 131, Day 88, M36I, 154V>I, V82A): 15 nM
EC50 ([3]; Human immunodeficiency virus 1, Patient No. 131, Day 200, K20K/R, M36I, I54I/V, V82A): 52 nM
EC50 ([3]; Human immunodeficiency virus 1, Patient No. 131, Day -28, baseline): 4 nM
EC50 ([3]; Human immunodeficiency virus 1, Patient No. 224, Day 110, L33L/F, V82T/S): 12 nM
EC50 ([3]; Human immunodeficiency virus 1, Patient No. 224, Day 190, K20K/N/R, L33L/F, M36M/I, I54V/M, V82S): 52 nM
EC50 ([3]; Human immunodeficiency virus 1, Patient No. 224, Day -6, baseline): 6 nM
EC50 ([3]; Human immunodeficiency virus 1, Patient No. 235, Day 167, I54I/V, A71V, V82A. L90L/M): 6 nM
EC50 ([3]; Human immunodeficiency virus 1, Patient No. 235, Day -1, baseline): 6 nM
EC50 ([3]; Human immunodeficiency virus 1, Patient No. 313, Day 57, M36M/I, V82F): 11 nM
EC50 ([3]; Human immunodeficiency virus 1, Patient No. 313, Day 85, M36M/I, I54I/V, V82S/F/A/T): 25 nM
EC50 ([3]; Human immunodeficiency virus 1, Patient No. 410, Day 57, M36M/I, I54I/V, V82A): 33 nM
EC50 ([3]; Human immunodeficiency virus 1, Patient No. 410, Day 85, M36I, I54V, V82A): 97 nM
EC50 (Passaged HIV-1; Human immunodeficiency virus 1, 384 h, read-out: The compound of Example 2B EC50 (µM), Virus P2 (selected at 0.02 µM, 16 days in culture)): 0.025 µM
EC50 (Passaged HIV-1; Human immunodeficiency virus 1, NL43, read-out: The compound of Example 2B EC50 (µM), Virus NL4-3): 0.028 µM
EC50 (Passaged HIV-1; Human immunodeficiency virus 1, read-out: The compound of Example 2B EC50 (µM), Virus P6 (selected at 0.12 µM, 58 days in culture)): 0.149 µM
EC50 (Passaged HIV-1; Human immunodeficiency virus 1, read-out: The compound of Example 2B EC50 (µM), Virus P7 (selected at 0.15 µM, 65 days in culture)): 0.201 µM
EC50 (Passaged HIV-1; Human immunodeficiency virus 1, read-out: The compound of Example 2B EC50 (µM), Virus P8 (selected at 0.21 µM, 75 days in culture)): 0.295 µM
EC50 (Passaged HIV-1; Human immunodeficiency virus 1, read-out: The compound of Example 2B EC50 (µM), Virus P9 (selected at 0.30 µM, 82 days in culture)): 0.333 µM
EC50 (Passaged HIV-1; Human immunodeficiency virus 1, read-out: The compound of Example 2B EC50 (µM), Virus P10 (selected at 0.30 µM, 93 days in culture)): 0.464 µM
EC50 (Passaged HIV-1; Human immunodeficiency virus 1, read-out: The compound of Example 2B EC50 (µM), Virus P11 (selected at 0.42 µM, 100 days in culture)): 0.346 µM
EC50 (Passaged HIV-1; Human immunodeficiency virus 1, read-out: The compound of Example 2B EC50 (µM), Virus P12 (selected at 0.62 µM, 107 days in culture)): 0.291 µM
EC50 (Passaged HIV-1; Human immunodeficiency virus 1, read-out: The compound of Example 2B EC50 (µM), Virus P13 (selected at 0.80 µM, 114 days in culture)): 1 µM
EC50 (Passaged HIV-1; Human immunodeficiency virus 1, read-out: The compound of Example 2B EC50 (µM), Virus P14 (selected at 1.10 µM, 121 days in culture)): 1.11 µM
EC50 (Passaged HIV-1; Human immunodeficiency virus 1, read-out: The compound of Example 2B EC50 (µM), Virus P15 (selected at 1.50 µM, 128 days in culture)): 1.34 µM
EC50 (Passaged HIV-1; Human immunodeficiency virus 1, read-out: The compound of Example 2B EC50 (µM), Virus P16 (selected at 2.00 µM, 135 days in culture)): 1.43 µM
EC50 ([4]; Human immunodeficiency virus 1, HXB2, Virus Clone Wild Type (HXB2), 0% Human Serum): 12 nM
EC50 ([4]; Human immunodeficiency virus 1, HXB2, Virus Clone Wild Type (HXB2), 50% Human Serum): 51 nM
EC50 ([4]; Human immunodeficiency virus 1, Virus Clone E35D, M36I, I54V, A71V, V82T, 0% Human Serum): 83 nM
EC50 ([4]; Human immunodeficiency virus 1, Virus Clone E35D, M36I, I54V, A71V, V82T, 50% Human Serum): 691 nM
EC50 ([4]; Human immunodeficiency virus 1, Virus Clone G48V, 0% Human Serum): 8 nM
EC50 ([4]; Human immunodeficiency virus 1, Virus Clone G48V, 50% Human Serum): 156 nM
EC50 ([4]; Human immunodeficiency virus 1, Virus Clone I54V, V82T, 0% Human Serum): 213 nM
EC50 ([4]; Human immunodeficiency virus 1, Virus Clone I54V, V82T, 50% Human Serum): 1150 nM
EC50 ([4]; Human immunodeficiency virus 1, Virus Clone I84V, 0% Human Serum): 20 nM
EC50 ([4]; Human immunodeficiency virus 1, Virus Clone I84V, 50% Human Serum): 170 nM
EC50 ([4]; Human immunodeficiency virus 1, Virus Clone K20R, E35D, M36I, I54V, A71V, V82T, 0% Human Serum): 93 nM
EC50 ([4]; Human immunodeficiency virus 1, Virus Clone K20R, E35D, M36I, I54V, A71V, V82T, 50% Human Serum): 376 nM
EC50 ([4]; Human immunodeficiency virus 1, Virus Clone L90M, 0% Human Serum): 16 nM
EC50 ([4]; Human immunodeficiency virus 1, Virus Clone L90M, 50% Human Serum): 180 nM
EC50 ([4]; Human immunodeficiency virus 1, Virus Clone V82A, 0% Human Serum): 33 nM
EC50 ([4]; Human immunodeficiency virus 1, Virus Clone V82A, 50% Human Serum): 268 nM
EC50 ([4]; Human immunodeficiency virus 1, Virus Clone V82F, 0% Human Serum): 26 nM
EC50 ([4]; Human immunodeficiency virus 1, Virus Clone V82F, 50% Human Serum): 147 nM
EC50 ([4]; Human immunodeficiency virus 1, Virus Clone V82S, 0% Human Serum): 26 nM
EC50 ([4]; Human immunodeficiency virus 1, Virus Clone V82S, 50% Human Serum): 314 nM
EC50 ([4]; Human immunodeficiency virus 1, Virus Clone V82T, 50% Human Serum): 147 nM
EC50 ([4]; Human immunodeficiency virus 1, Virus Clone Wild Type (pNL4-3), 0% Human Serum): 22 nM
EC50 ([4]; Human immunodeficiency virus 1, Virus Clone Wild Type (pNL4-3), 50% Human Serum): 126 nM
